Measured values: patent US20030166692A1, “Composition useful as anticancer drug and radiosensitizer” (PHARMGENIA CO., LTD. of Developmental Genetics Laboratory,, priority 2002, published 2003)

What was measured:
[1] = tested on: human NCI-H460 lung cancer cell line; assay: MTT survival of NCI-H460 cancer cells after treatment with the compound of formula I; assay type: cell-based; conditions: for The survival rate of cancer cells: MTT, relative to DMSO control
Protocol: (§1) In this Example, the effect of the compound of formula I as an anticancer agent was evaluated in vitro using human NCI-H460 and SNU638 cancer cell lines.
(§2) The inventor purchased the compound of formula I from ChemBridge Corporation (San Diego, Calif.). Human NCI-H460 lung cancer cell line was obtained from ATCC (American Type Culture Collection), while human SNU638 gastric cancer cell line from KCLB (Korean Cell Line Bank).
(§3) Under […] at 37° C., the human NCI-H460 and SNU638 cancer cell lines were incubated for 4 days in RPMI1640 culture medium (GIBCO/BRL, Grand Island, N.Y.) containing 10% calf fetus serum, penicillin 100 units/ml, and streptomycin 100 μg/ml.
In the case of the NCI-H460 cell line, the compound of formula I was dissolved in DMSO (dimethyl sulfoxide) in order to make its concentration 0.1 ng/ml, 1 ng/ml, 10 ng/ml, 100 ng/ml, 1,000 ng/ml and 10,000 ng/ml, respectively. During incubation, the NCI-H460 cells were treated with each concentration of the compound of formula I, respectively.
(§4) Then, any surviving cancer cells were dyed with MTT [3-(4,5-dimethylthiazol-2-yl)-2,5-diphenyltetrazolium bromide] and quantified at 540 nm with a microplate reader.
(§5) Following Tables 1 and 2, and FIGS. 1 and 2, respectively show the survival rate of cancer cells, based on relative absorbance rate in reference to control (i.e. cancer cells treated with DMSO only). […] When treated with 1,000 ng/ml of the compound of formula I, about 80% (in the case of the NCI-H460 cell line) and 94% (in the case of the SNU638 cell line) of cancer cells were killed.

[2] = tested on: human SNU638 gastric cancer cell line; assay: MTT survival of SNU638 cancer cells after treatment with the compound of formula I; assay type: cell-based; conditions: for The survival rate of cancer cells: MTT, relative to DMSO control
Protocol: as §1, §2, §3
In the case of the SNU638 cell line, the compound of formula I was dissolved in DMSO in order to make its concentration 1 ng/ml, 10 ng/ml, 100 ng/ml, 1,000 ng/ml and 10,000 ng/ml, respectively. During incubation, the SNU638 cells were treated with each concentration of the compound of formula I, respectively.
as §4, §5

[3] = tested on: human NCI-H460 lung cancer cell line; assay: Colony formation of NCI-H460 cells, compound followed by γ-irradiation; assay type: cell-based; conditions: for The survival rate of cancer cells (combination therapy): colony formation vs un-irradiated compound-treated cells
Protocol: (§6) Using the same method as described in Example 1, human A549 and NCI-H460 lung cancer cell lines (obtained from ATCC) were incubated in RPMI1640 culture medium.
(§7) Then, cancer cells were collected and placed into 60 mm (in diameter) petri dishes, 300 cells per petri dish. After the cancer cells were incubated in water-containing CO2 incubator at 37° C. for 24 hours, 1 ng/ml and 0.1 ng/ml of the compound of formula I dissolved in DMSO were treated to human NCI-H460 and A549 cells, respectively. Four (4) hours later, the cancer cells were irradiated with a different amount of γ-rays using ^137Cs γ-rays source (Atomic Energy of Canada, Ltd., Canada). After cultivated for 10 days, the colonies were dyed with 1% methylene blue. Colonies having diameters of 200 μm or more were counted using Colony Counter (Imaging Products, Chantilly, Va.).
(§8) The results regarding colony formation are shown in the following Tables 3 and 4, and FIGS. 3 and 4.

[4] = tested on: human A549 lung cancer cell line; assay: Colony formation of A549 cells, compound followed by γ-irradiation; assay type: cell-based; conditions: for The survival rate of cancer cells (combination therapy): colony formation vs un-irradiated compound-treated cells
Protocol: as §6, §7, §8

[5] = tested on: NCI-H460 cells transplanted into mice; assay: Tumor volume of NCI-H460 cells transplanted into mice; assay type: in vivo
Protocol: Six (6) week old mice of BALB/cAnNCrj-nu/nu strain, which were obtained from Chales River Japan Inc. (Japan), were subcutaneously injected lung cancer cells (NCI-H460 cell line, 5×10^6 cells) to develop tumors.
Mice were selected whose tumor volume reached 120 mm^3, and subdivided into 4 groups each having 5 mice: Group 1 (control, treated with DMSO); Group 2 (treated only with 10 mg/kg of the compound of formula I); Group 3 (treated only with 5 Gy of irradiation); and Group 4 (treated with 10 mg/kg of the compound of formula I and 5 Gy of irradiation).
Five (5) times with 5 day intervals between each time, DMSO or the compound of formula I was subcutaneously injected to the mice of Groups 1, 2 and 4, and γ-rays were irradiated to the mice of Groups 3 and 4.
The compound of formula I was dissolved in DMSO to make its concentration 5 mg/ml. 40 μl of DMSO and the compound of formula I each were administered to Groups 1, 2 and 4, respectively. The mice of Group 4 were subcutaneously injected with the compound of formula I, and 4 hours later followed by irradiation. The change of tumor volume in each Group was observed 11 times with 3 to 5 days of interval for 42 days.

## CSC(=S)N/N=C(\c1ccccc1)c1ccccn1 [compound of formula I, N′-(phenyl-pyridin-2-yl-methylene)-hydrazine carbodithioic acid methyl ester]
[1]; 0.1 ng/ml
  The survival rate of cancer cells: 90.2%
[1]; 1 ng/ml
  cancer cells killed: about 12%
  The survival rate of cancer cells: 87.7%
[1]; 10 ng/ml
  The survival rate of cancer cells: 51.3%
[1]; 100 ng/ml
  The survival rate of cancer cells: 36.6%
[1]; 1,000 ng/ml
  cancer cells killed: about 80%
  The survival rate of cancer cells: 20%
[1]; 10,000 ng/ml
  The survival rate of cancer cells: 2%
[2]; 1 ng/ml
  cancer cells killed: ~35%
  The survival rate of cancer cells: 64.46%
[2]; 10 ng/ml
  The survival rate of cancer cells: 53.22%
[2]; 100 ng/ml
  The survival rate of cancer cells: 46.41%
[2]; 1,000 ng/ml
  cancer cells killed: ~94%
  The survival rate of cancer cells: 5.71%
[2]; 10,000 ng/ml
  The survival rate of cancer cells: 3.87%
[3]; 1 ng/ml compound then 1 Gy
  The survival rate of cancer cells (combination therapy): 37.5%
[3]; 1 ng/ml compound then 3 Gy
  The survival rate of cancer cells (combination therapy): 9%
[3]; 1 ng/ml compound then 5 Gy
  The survival rate of cancer cells (combination therapy): 1%
[3]; 1 ng/ml compound then 7 Gy
  The survival rate of cancer cells (combination therapy): 0.01%
[3]; 1 ng/ml followed by 1 Gy, in comparison with 1 ng/ml and no irradiation
  cancer cells killed: 62.5%
[3]; 1 ng/ml in combination with 1 Gy
  enhanced anticancer effect in comparison with 1 Gy of irradiation: 27.5%
[3]; 1 Gy or more irradiated, 1 ng/ml
  radio-enhanced cancer treatment effect: significantly effective
[4]; 0.1 ng/ml compound then 1 Gy
  The survival rate of cancer cells (combination therapy): 53%
[4]; 0.1 ng/ml compound then 3 Gy
  The survival rate of cancer cells (combination therapy): 10%
[4]; 0.1 ng/ml compound then 5 Gy
  The survival rate of cancer cells (combination therapy): 2%
[4]; 0.1 ng/ml compound then 7 Gy
  The survival rate of cancer cells (combination therapy): 1%
[4]; 0.1 ng/ml followed by 1 Gy, in comparison with 0.1 ng/ml and no irradiation
  cancer cells killed: 47%
[4]; 0.1 ng/ml in combination with 1 Gy
  increased anticancer effect in comparison with 1 Gy of irradiation only: 32%
[4]; 1 Gy or more irradiated, 0.1 ng/ml
  radio-enhanced cancer treatment effect: significantly effective
[5]; Combination: 10 mg/kg s.c. + 5 Gy irradiation, 10 days
  tumor volume: 133 mm^3
[5]; Combination: 10 mg/kg s.c. + 5 Gy irradiation, 13 days
  tumor volume: 268 mm^3
[5]; Combination: 10 mg/kg s.c. + 5 Gy irradiation, 18 days
  tumor volume: 379 mm^3
[5]; Combination: 10 mg/kg s.c. + 5 Gy irradiation, 21 days
  tumor volume: 539 mm^3
[5]; Combination: 10 mg/kg s.c. + 5 Gy irradiation, 24 days
  tumor volume: 710 mm^3
[5]; Combination: 10 mg/kg s.c. + 5 Gy irradiation, 26 days
  tumor volume: 760 mm^3
[5]; Combination: 10 mg/kg s.c. + 5 Gy irradiation, 29 days
  tumor volume: 862 mm^3
[5]; Combination: 10 mg/kg s.c. + 5 Gy irradiation, 33 days
  tumor volume: 950 mm^3
[5]; Combination: 10 mg/kg s.c. + 5 Gy irradiation, 36 days
  tumor volume: 1,086 mm^3
[5]; Combination: 10 mg/kg s.c. + 5 Gy irradiation, 39 days
  tumor volume: 1,079 mm^3
[5]; Combination: 10 mg/kg s.c. + 5 Gy irradiation, 42 days
  tumor volume: 1,164 mm^3
[5]; Group 2 (compound only, 10 mg/kg) vs Group 1 (control)
  increase rate of the tumor volume: much lower than in Group 1
[5]; Group 4 (compound + 5 Gy irradiation) compared to Group 3 (irradiation only)
  increase in tumor volume: little increase in tumor volume
[5]; compound only, 10 mg/kg s.c., 10 days
  tumor volume: 179 mm^3
[5]; compound only, 10 mg/kg s.c., 13 days
  tumor volume: 258 mm^3
[5]; compound only, 10 mg/kg s.c., 18 days
  tumor volume: 614 mm^3
[5]; compound only, 10 mg/kg s.c., 21 days
  tumor volume: 923 mm^3
[5]; compound only, 10 mg/kg s.c., 24 days
  tumor volume: 1,274 mm^3
[5]; compound only, 10 mg/kg s.c., 26 days
  tumor volume: 1,766 mm^3
[5]; compound only, 10 mg/kg s.c., 29 days
  tumor volume: 2,211 mm^3
[5]; compound only, 10 mg/kg s.c., 33 days
  tumor volume: 2,759 mm^3
[5]; compound only, 10 mg/kg s.c., 36 days
  tumor volume: 3,374 mm^3
[5]; compound only, 10 mg/kg s.c., 39 days
  tumor volume: 3,787 mm^3
[5]; compound only, 10 mg/kg s.c., 42 days
  tumor volume: 4,133 mm^3
